Laboratory results taken from patent US4113944A, “Cephalosporin-type antibiotics and process for producing the same” (Meiji Seika Kaisha, Ltd., priority 1974, dated 1978).
Converted amounts (≈) assume the structure as drawn. Read-outs that look alike come from different tables or passages of the source.

Assays:
[1] = acute toxicity in mice (LD50); details: mouse, in vivo
Proteus vulgaris = experiment: Minimum Inhibitory Concentration (antimicrobial activity), Proteus vulgaris; type: cell-based; details: read-out: Minimum Inhibitory Concentration (MIC)
[2] = tested on: Staphylococcus aureus Smith S-424; experiment: ED50 in mice suffering from infectious disease, Staphylococcus aureus Smith S-424; type: in vivo
Experimental: (§1) The ED50 values of the above obtained compounds were determined by intravenously administering the compounds to mice suffering from infectious diseases caused by various bacteria and were compared with those obtained using known antibiotics.

Proteus vulgaris C-73-9 = experiment: ED50 in mice suffering from infectious disease, Proteus vulgaris C-73-9; type: in vivo
Experimental: as §1

[3] = tested on: Salmonella typhi W-901-10; experiment: ED50 in mice suffering from infectious disease, Salmonella typhi W-901-10; type: in vivo; details: Salmonella enterica, iv
Experimental: as §1

Escherichia coli = experiment: Minimum Inhibitory Concentration (antimicrobial activity), Escherichia coli; type: cell-based
[4] = tested on: Salmonella enteritidis No.11; experiment: ED50 in mice suffering from infectious disease, Salmonella enteritidis No.11; type: in vivo; details: Salmonella enterica
Experimental: as §1

Salmonella = experiment: Minimum Inhibitory Concentration (antimicrobial activity), Salmonella; type: cell-based
Kurebusiera pneumonia = experiment: Minimum Inhibitory Concentration (antimicrobial activity), Kurebusiera pneumonia; type: cell-based
Pseudomonas aeruginose = experiment: Minimum Inhibitory Concentration (antimicrobial activity), Pseudomonas; type: cell-based
Staphylococcus aureaus = experiment: Minimum Inhibitory Concentration (antimicrobial activity), Staphylococcus aureus; type: cell-based
[5] = C739, Proteus vulgaris C-73-9 (strains produced from Cephalosporinase), intravenous, mice, Example 1 as disodium salt, read-out: ED50
[6] = Salmonella enteritidis No.11, intravenous, mice, Example 1 as disodium salt, read-out: ED50
[7] = acute toxicity, mice, Example 1 as disodium salt, read-out: LD50

Compound	MIC (Proteus vulgaris) [µg/mL]	MIC (Escherichia coli) [µg/mL]	MIC (Salmonella) [µg/mL]	other results
O=C(Cc1cccs1)N[C@@H]1C(=O)N2C(C(=O)[O-])=C(C[n+]3ccccc3)CS[C@H]12 [Cephaloridine]				LD50 [1]: 3840 mg/kg
O=C(O)Cc1nnc(SCC2=C(C(=O)O)N3C(=O)C(NC(=O)Cc4cccs4)[C@H]3SC2)[nH]1 (some centres unmarked) [Example 1, 7-(2-thienylacetamido)-3-(5-carboxymethyl-1,3,4-triazol-2-yl)thiomethyl-3-cephem-4-carboxylic acid]	3.13 (≈ 6.32 µM)	6.25 (≈ 12.6 µM)	0.78 (≈ 1.57 µM)	ED50 ([2]; SMITHS424, Staphylococcus aureus Smith S-424, intravenous, mice, Example 1 as dipotassium salt, read-out: ED50): 8.5 mg/kg; ED50 (Proteus vulgaris C-73-9; [5]): 7.3 mg/kg; ED50 [3]: 52 mg/kg; ED50 [4, 6]: 27 mg/kg; LD50 [1, 7]: 6300 mg/kg
O=C(O)CCc1nnc(SCC2=C(C(=O)O)N3C(=O)C(NC(=O)Cc4cccs4)[C@H]3SC2)[nH]1 (some centres unmarked) [Example 2, 7-(2-thienylacetamido)-3-[5-(2-carboxyethyl)-1,3,4-triazol-2-yl]thiomethyl-3-cephem-4-carboxylic acid]	0.2 (≈ 0.392 µM)	6.25 (≈ 12.3 µM)	0.78 (≈ 1.53 µM)	
Cn1c(CCC(=O)O)nnc1SCC1=C(C(=O)O)N2C(=O)C(NC(=O)Cc3cccs3)[C@H]2SC1 (some centres unmarked) [Example 3, 7-(2-thienylacetamido)-3-[5-(2-carboxyethyl)-1-methyl-1,3,4-triazol-2-yl]thiomethyl-3-cephem-4-carboxylic acid]	0.78 (≈ 1.49 µM)	1.56 (≈ 2.98 µM)	0.78 (≈ 1.49 µM)	
O=C(O)CCc1nnc(SCC2=C(C(=O)O)N3C(=O)C(NC(=O)Cc4cccs4)[C@H]3SC2)n1-c1ccccc1 (some centres unmarked) [Example 4, 7-(2-thienylacetamido)-3-[5-(2-carboxyethyl)-1-phenyl-1,3,4-triazol-2-yl]thiomethyl-3-cephem-4-carboxylic acid]	1.56 (≈ 2.66 µM)	25 (≈ 42.7 µM)	25 (≈ 42.7 µM)	
Cn1c(CC(=O)O)nnc1SCC1=C(C(=O)O)N2C(=O)C(NC(=O)Cc3cccs3)[C@H]2SC1 (some centres unmarked) [Example 5, 7-(2-thienylacetamido)-3-(5-carboxymethyl-1-methyl-1,3,4-triazol-2-yl)-thiomethyl-3-cephem-4-carboxylic acid]	0.2 (≈ 0.392 µM)	3.13 (≈ 6.14 µM)	0.78 (≈ 1.53 µM)	
O=C(Cc1cccs1)NC1C(=O)N2C(C(=O)O)=C(CSc3nnc(C(=O)O)[nH]3)CS[C@H]12 (some centres unmarked) [Example 6, 7-(2-thienylacetamido)-3-(5-carboxy-1,3,4-triazol-2-yl)thiomethyl-3-cephem-4-carboxylic acid]	0.2 (≈ 0.415 µM)	6.25 (≈ 13 µM)	3.13 (≈ 6.5 µM)	
Cn1c(SCC2=C(C(=O)O)N3C(=O)C(NC(=O)Cc4cccs4)C3SC2)nnc1C(=O)O (centres unmarked) [Example 7, 7-(2-thienylacetamido)-3-(5-carboxy-1-methyl-1,3,4-triazol-5-yl)-thiomethyl-3-cephem-4-carboxylic acid]	0.39 (≈ 0.787 µM)	1.56 (≈ 3.15 µM)	0.78 (≈ 1.57 µM)	
O=C(Cc1cccs1)NC1C(=O)N2C(C(=O)O)=C(CSc3nnc(C(=O)O)n3-c3ccccc3)CSC12 (centres unmarked) [Example 8, 7-(2-thienylacetamido)-3-(5-carboxy-1-phenyl-1,3,4-triazol-5-yl)thiomethyl-3-cephem-4-carboxylic acid]	0.78 (≈ 1.4 µM)	25 (≈ 44.8 µM)	12.5 (≈ 22.4 µM)	
Cn1cnnc1SCC1=C(C(=O)O)N2C(=O)C(NC(=O)Cc3cccs3)C2SC1 (centres unmarked) [Example 22, 7-(2-thienylacetamide)-3-(1-methyl-1,3,4-triazol-5-yl)thiomethyl-3-cephem-4-carboxylic acid]	50 (≈ 111 µM)	6.25 (≈ 13.8 µM)	1.56 (≈ 3.45 µM)	MIC (Kurebusiera pneumonia): 0.78 µg/mL (≈ 1.73 µM); MIC (Pseudomonas aeruginose): 1.56 µg/mL (≈ 3.45 µM); MIC (Staphylococcus aureaus): 0.78 µg/mL (≈ 1.73 µM)
CC(=O)OCC1=C(C(=O)O)N2C(=O)[C@@H](NC(=O)Cc3cccs3)[C@H]2SC1 [Sodium Cephalotin, 7-(2-thienylacetamido)cephalosporanic acid, reference compound]	2.5	6.25	3.13	ED50 ([2]; Staphylococcus aureus, SMITHS424, iv): 19 mg/kg; ED50 (Proteus vulgaris C-73-9; Proteus vulgaris, C739, iv): 14 mg/kg; ED50 [3]: 200 mg/kg; ED50 ([4]; ENTERITIDIS, iv): 480 mg/kg; LD50 [1, 7]: 5180 mg/kg
Cc1nnc(SCC2=C(C(=O)O)N3C(=O)[C@@H](NC(=O)Cn4cnnn4)[C@H]3SC2)s1 [Sodium Cephazoline]				ED50 (Proteus vulgaris C-73-9; [5]): 18.5 mg/kg; ED50 [4, 6]: 130 mg/kg; LD50 [1, 7]: 3130 mg/kg
